Each structure is given as a SMILES string.

For assay [1], the system named is HCV genotype 1a (strain H77) subgenomic replicon with NS3 resistance mutation R155K in Huh-7 cells. The experiment in a line: HCV replicon RNA replication assay (NS3 protease variants), genotype 1a R155K. The class given is cell-based. The following applies: Hepatitis C virus, Huh-7, 72 h, read-out: R155K 1a EC50 (nM).
Assay [2] has as its system HCV genotype 1b (Con-1) subgenomic replicon with NS3 resistance mutation D168V in Huh-7 cells. The experiment in a line: HCV replicon RNA replication assay (NS3 protease variants), genotype 1b D168V. It is filed as cell-based. The settings on record: Hepatitis C virus, Huh-7, 72 h, read-out: D168V 1b EC50 (nM).

For the compound `Cc1ccc(C(=O)N[C@H]2CCCCC/C=C\[C@@H]3C[C@@]3(C(=O)NS(=O)(=O)C3CC3)NC(=O)[C@@H]3C[C@@H](Oc4cc(OC(C)C)nc5c(C)c(O)ccc45)CN3C2=O)s1` [Compound 1036, (2R,6S,12Z,13aS,14aR,16aS)-N-(cyclopropylsulfonyl)-2-{[7-hydroxy-8-methyl-2-(propan-2-yloxy)quinolin-4-yl]oxy}-6-{[(5-methylthiophen-2-yl)carbonyl]amino}-5,16-dioxo-1,2,3,6,7,8,9,10,11,13a,14,15,16,16a-tetradecahydrocyclopropa[e]pyrrolo[1,2-a][1,4]diazacyclopentadecine-14a(5H)-carboxamide], the half-maximal effective concentration (EC50) (in general, the concentration that produces a half-maximal response) in assay [1] is 3.2 nM; in assay [2] it was 1.3 nM.

Regarding `Cc1c(O)ccc2c(O[C@@H]3C[C@H]4C(=O)N[C@]5(C(=O)NS(=O)(=O)C6CC6)C[C@H]5/C=C\CCCCC[C@H](NC(=O)c5ccn(C)n5)C(=O)N4C3)cc(OC(C)C)nc12` [Compound 1037, (2R,6S,12Z,13aS,14aR,16aS)-N-(cyclopropylsulfonyl)-2-{[7-hydroxy-8-methyl-2-(propan-2-yloxy)quinolin-4-yl]oxy}-6-{[(1-methyl-1H-pyrazol-3-yl)carbonyl]amino}-5,16-dioxo-1,2,3,6,7,8,9,10,11,13a,14,15,16,16a-tetradecahydrocyclopropa[e]pyrrolo[1,2-a][1,4]diazacyclopentadecine-14a(5H)-carboxamide], the EC50 in assay [1] was found to be 4.3 nM; in assay [2] it was 3.7 nM.

Consider `COc1ccc2c(O[C@@H]3C[C@H]4C(=O)N[C@]5(C(=O)NS(=O)(=O)C6(C)CC6)C[C@H]5/C=C\CCCCC[C@H](NC(=O)N5CCC5)C(=O)N4C3)cc(OC(C)C)nc2c1C` [Compound 2001, (2R,6S,12Z,13aS,14aR,16aS)-6-[(azetidin-1-ylcarbonyl)amino]-2-{[7-methoxy-8-methyl-2-(propan-2-yloxy)quinolin-4-yl]oxy}-N-[(1-methylcyclopropyl)sulfonyl]-5,16-dioxo-1,2,3,6,7,8,9,10,11,13a,14,15,16,16a-tetradecahydrocyclopropa[e]pyrrolo[1,2-a][1,4]diazacyclopentadecine-14a(5H)-carboxamide], for which the EC50 in assay [1] was determined as 2.3 nM; in assay [2], 0.48 nM.

In the case of `COc1c(F)ccc2c(O[C@@H]3C[C@H]4C(=O)N[C@]5(C(=O)NS(=O)(=O)C6(C)CC6)C[C@H]5/C=C\CCCCC[C@H](NC(=O)N(C)C)C(=O)N4C3)cc(OC(C)C)nc12` [Compound 2002, (2R,6S,12Z,13aS,14aR,16aS)-6-[(dimethylcarbamoyl)amino]-2-{[7-fluoro-8-methoxy-2-(propan-2-yloxy)quinolin-4-yl]oxy}-N-[(1-methylcyclopropyl)sulfonyl]-5,16-dioxo-1,2,3,6,7,8,9,10,11,13a,14,15,16,16a-tetradecahydrocyclopropa[e]pyrrolo[1,2-a][1,4]diazacyclopentadecine-14a(5H)-carboxamide], the EC50 in assay [1] is 4.7 nM; in assay [2], 0.41 nM.

For the compound `COc1ccc2c(O[C@@H]3C[C@H]4C(=O)N[C@]5(C(=O)NS(=O)(=O)C6(C)CC6)C[C@H]5/C=C\CCCCC[C@H](NC(=O)N5CC(OC)C5)C(=O)N4C3)cc(OC(C)C)nc2c1C` [Compound 2003, (2R,6S,12Z,13aS,14aR,16aS)-6-{[(3-methoxyazetidin-1-yl)carbonyl]amino}-2-{[7-methoxy-8-methyl-2-(propan-2-yloxy)quinolin-4-yl]oxy}-N-[(1-methylcyclopropyl)sulfonyl]-5,16-dioxo-1,2,3,6,7,8,9,10,11,13a,14,15,16,16a-tetradecahydrocyclopropa[e]pyrrolo[1,2-a][1,4]diazacyclopentadecine-14a(5H)-carboxamide], the EC50 in assay [1] came to 9.1 nM; in assay [2], 0.47 nM.

For `COc1ccc2c(O[C@@H]3C[C@H]4C(=O)N[C@]5(C(=O)NS(=O)(=O)C6(C)CC6)C[C@H]5/C=C\CCCCC[C@H](NC(=O)N5CCC(F)(F)C5)C(=O)N4C3)cc(OC(C)C)nc2c1C` [Compound 2004, (2R,6S,12Z,13aS,14aR,16aS)-6-{[(3,3-difluoropyrrolidin-1-yl)carbonyl]amino}-2-{[7-methoxy-8-methyl-2-(propan-2-yloxy)quinolin-4-yl]oxy}-N-[(1-methylcyclopropyl)sulfonyl]-5,16-dioxo-1,2,3,6,7,8,9,10,11,13a,14,15,16,16a-tetradecahydrocyclopropa[e]pyrrolo[1,2-a][1,4]diazacyclopentadecine-14a(5H)-carboxamide], the EC50 amounted to 8.2 nM in assay [1] and 1.6 nM in assay [2].

Take `COc1ccc2c(O[C@@H]3C[C@H]4C(=O)N[C@]5(C(=O)NS(=O)(=O)C6CC6)C[C@H]5/C=C\CCCCC[C@H](NC(=O)N5CCC5)C(=O)N4C3)cc(OC(C)C)nc2c1C` [Compound 2005, (2R,6S,12Z,13aS,14aR,16aS)-6-[(azetidin-1-ylcarbonyl)amino]-N-(cyclopropylsulfonyl)-2-{[7-methoxy-8-methyl-2-(propan-2-yloxy)quinolin-4-yl]oxy}-5,16-dioxo-1,2,3,6,7,8,9,10,11,13a,14,15,16,16a-tetradecahydrocyclopropa[e]pyrrolo[1,2-a][1,4]diazacyclopentadecine-14a(5H)-carboxamide]: the results for the EC50 in assay [1] and in assay [2] were 4.8 nM and 0.82 nM, respectively.

Consider `CCOc1cc(O[C@@H]2C[C@H]3C(=O)N[C@]4(C(=O)NS(=O)(=O)C5(C)CC5)C[C@H]4/C=C\CCCCC[C@H](NC(=O)N(C)C)C(=O)N3C2)c2ccc(OC)c(C)c2n1` [Compound 2006, (2R,6S,12Z,13aS,14aR,16aS)-6-[(dimethylcarbamoyl)amino]-2-[(2-ethoxy-7-methoxy-8-methylquinolin-4-yl)oxy]-N-[(1-methylcyclopropyl)sulfonyl]-5,16-dioxo-1,2,3,6,7,8,9,10,11,13a,14,15,16,16a-tetradecahydrocyclopropa[e]pyrrolo[1,2-a][1,4]diazacyclopentadecine-14a(5H)-carboxamide], for which the EC50 in assay [1] turned out to be 9.9 nM; in assay [2], 2.1 nM.

On to `COc1ccc2c(O[C@@H]3C[C@H]4C(=O)N[C@]5(C(=O)NS(=O)(=O)C6CC6)C[C@H]5/C=C\CCCCC[C@H](NC(=O)N5CC(F)C5)C(=O)N4C3)cc(OC(C)C)nc2c1C` [Compound 2007, (2R,6S,12Z,13aS,14aR,16aS)-N-(cyclopropylsulfonyl)-6-{[(3-fluoroazetidin-1-yl)carbonyl]amino}-2-{[7-methoxy-8-methyl-2-(propan-2-yloxy)quinolin-4-yl]oxy}-5,16-dioxo-1,2,3,6,7,8,9,10,11,13a,14,15,16,16a-tetradecahydrocyclopropa[e]pyrrolo[1,2-a][1,4]diazacyclopentadecine-14a(5H)-carboxamide], for which the EC50 in assay [1] turned out to be 9 nM; in assay [2], 0.71 nM.

Consider `COc1ccc2c(O[C@@H]3C[C@H]4C(=O)N[C@]5(C(=O)NS(=O)(=O)C6(C)CC6)C[C@H]5/C=C\CCCCC[C@H](NC(=O)N(C)C)C(=O)N4C3)cc(OC(C)C)nc2c1C` [Compound 2008, (2R,6S,12Z,13aS,14aR,16aS)-6-[(dimethylcarbamoyl)amino]-2-{[7-methoxy-8-methyl-2-(propan-2-yloxy)quinolin-4-yl]oxy}-N-[(1-methylcyclopropyl)sulfonyl]-5,16-dioxo-1,2,3,6,7,8,9,10,11,13a,14,15,16,16a-tetradecahydrocyclopropa[e]pyrrolo[1,2-a][1,4]diazacyclopentadecine-14a(5H)-carboxamide], for which the EC50 turned out to be 6.7 nM in assay [1] and 1.5 nM in assay [2].

(Values after patent US20110294778A1, “HEPATITIS C INHIBITOR COMPOUNDS” (priority 2009, published 2011).)
